According to patent US4952560A, “Ointment base” (Takeda Chemical Industries, Ltd., priority 1984, dated 1990):
Counter-ions that a name gives are not always drawn.

Tested on: Pressor reaction (norepinephirine)
Assay: Pressor reaction inhibiting effect of prazosin hydrochloride-containing preparation (Test Example 2)
Format: in vivo, male SD rats
Conditions: oral, 20 mg/kg once daily, 3 days; 24 h after last dose; norepinephirine 3 μg/kg i.v.; control 48.6 ± 1.2; * significant difference from control (risk factor 5%)
Description: (B) A suspension of prazosin hydrochloride in 1% gum arabic suspension was orally administered.
The dosage for both treatment groups was 20 mg/kg once daily and the treatment was carried out for 3 consecutive days. Twenty-four hours after the last dosing, 3 μg/kg of norepinephirine was intravenously administered under pentobarbital sodium anesthesia (dosage 40 mg/kg; intraperitoneal) and the resulting pressor reaction was compared with that in the untreated control group.

Compound: COc1cc2nc(N3CCN(C(=O)c4ccco4)CC3)nc(N)c2cc1OC [prazosin hydrochloride]
- Pressor reaction: 34.9 ± 2.2 mmHg
